Consider three compounds from ChEMBL document CHEMBL3608233, “Potent benzoazepinone γ-secretase modulators with improved bioavailability” (Bioorg Med Chem Lett, 2015).

For orientation: solubility means the concentration that dissolves in the medium under given conditions. High values mean a readily soluble substance, low ones a poorly soluble substance. As usually defined, the half-life is the time needed for the level to fall by half in the phase considered. Higher therefore signals slow loss. As usually defined, the CLint scaled is a measure of how fast metabolising enzymes remove a compound, apart from limits set by blood flow. The low end stands for slow turnover, the high end for rapid turnover. As usually defined, the clearance is the volume of plasma or blood freed of the substance per unit of time. Higher therefore signals a high capacity for elimination. As a reminder, the Vd is the apparent volume that relates the amount in the body to the concentration in plasma or blood. One may read the Papp as a coefficient for how fast a substance crosses the barrier. The low end stands for slow passage, the high end for fast passage. A word on the bioavailability: it is the share of a dose that reaches the circulation, judged against a reference dose that is usually intravenous. Read a high bioavailability as much systemic uptake.

Data set [1] is described as follows: Drug metabolism in dog urine assessed as formation of methyl ester cleavage product. In kind it is ADME, tissue-based, Canis lupus familiaris.
Data set [2] in a line: physchem. Particulars: buffer, pH 2.
Data set [3] in a line: in vivo. Particulars: beagle, dog.
Data set [4] in a line: in vitro. Particulars: dog, hepatocytes.
Data set [5] is described as follows: in vivo. Particulars: beagle, dog, iv.
Another data set is filed under the species Canis familiaris. Particulars: dog, in vivo, po, 0.5 mg/kg.
The nature of data set [6]: Plasma concentration in APP YAC Tg mouse model at 30 mg/kg after 6 hrs. Format: ADME, organism-based.
Data set [7] is described as follows: in vivo. Particulars: beagle, dog, iv. The source holds these as a separate data set.
Data set [8] can be described thus: Drug metabolism in dog urine assessed as oxidation of methylimidazole. Format: ADME, tissue-based, Canis lupus familiaris.
A short description of data set [9]: in vitro. The conditions noted are these: pig, LLC-PK1.
The nature of data set [10]: Drug metabolism in dog urine assessed as oxidation of benzoazepinone. Format: ADME, tissue-based, Canis lupus familiaris.
Data set [11] can be described thus: in vivo. Particulars: Sprague-Dawley, rat, iv, 1 mg/kg.
A short description of data set [12]: in vitro. Particulars: human, hepatocytes.
Data set [13] in a line: physchem. The conditions noted are these: buffer, pH 7.
Data set [14] can be described thus: in vivo. Particulars: Sprague-Dawley, rat.
Data set [15] in a line: in vivo. Particulars: Sprague-Dawley, rat, iv, 1 mg/kg. This is another data set of the same source.
Data set [16] in a line: Drug uptake in brain of APP YAC Tg mouse model at 30 mg/kg after 6 hrs. Format: ADME, organism-based. The conditions noted are these: read-out: Drug uptake.
The nature of data set [17]: in vitro. Particulars: rat, hepatocytes.
Data set [18] is described as follows: Drug metabolism in dog hepatocytes assessed as formation of methyl ester cleavage product. Format: ADME, cell-based, Canis lupus familiaris, Hepatocyte.
A short description of data set [19]: Ratio of drug level in brain to plasma in APP YAC Tg mouse model at 30 mg/kg after 6 hrs. Format: ADME, organism-based. Particulars: brain and plasma, read-out: BPR.
Data set [20] in a line: in vivo. The conditions noted are these: Sprague-Dawley, rat, po, 2 mg/kg.
Data set [21] is described as follows: Drug metabolism in dog hepatocytes assessed as oxidation of benzoazepinone. In kind it is ADME, cell-based, Canis lupus familiaris, Hepatocyte.
Data set [22] is described as follows: in vivo. Particulars: APP YAC Tg, mouse, plasma, 100 mg/kg.
Data set [23] can be described thus: in vivo. Particulars: APP YAC Tg, mouse, brain, 100 mg/kg.
Data set [24] is described as follows: in vivo. The conditions noted are these: APP YAC Tg, mouse, brain, 50 mg/kg.
Data set [25] is described as follows: in vivo. Particulars: APP YAC Tg, mouse, plasma, 50 mg/kg.

Converted amounts (≈) assume the structure as drawn.

Take `COc1cc(-c2cn([C@H]3CCc4c(F)cccc4N(CC(F)(F)F)C3=O)nn2)ccc1-n1cnc(C)c1`: the Drug metabolism result in [1] is “metabolite_notdetected”; in data set [8], “metabolite_detected”; in data set [10], “metabolite_detected”; in data set [18] it was “metabolite_notdetected”; in [21] it was “metabolite_detected”. The solubility in “physchem [2]” turned out to be 170 µM (≈ 87.5 µg/mL); in the data set “physchem [13]”, 4.2 µM (≈ 2.16 µg/mL). Besides, the half-life in “in vivo [3]” is 42 min; in “in vivo [14]”, 48 min. Besides, the intrinsic metabolic clearance (CLint scaled) in the data set “in vitro [4]” is 400 mL/min/kg; in “in vitro [12]” it was 94 mL/min/kg; in the data set “in vitro [17]” it was 210 mL/min/kg. The figures for the clearance in “in vivo [5]” and in the data set “in vivo [11]” were 98 mL/min/kg and 38 mL/min/kg, respectively. Moreover, the F result in the data set listed under Canis familiaris was “BLD”. Further, the concentration at 6 h was 5.1 µM in [6] and 1600 nM in data set [16]. Moreover, the Vd was determined as 5.6 L/kg in “in vivo [7]” and 4.8 L/kg in “in vivo [15]”. This compound had a Papp in the data set “in vitro [9]” of 21 ×10⁻⁶ cm/s. Besides, the Kp at 6 h in data set [19] came out at 0.3. Further, in “in vivo [20]”, the bioavailability turned out to be 100%.
For `COc1cc(-c2cn([C@H]3CCc4c(F)cccc4N(CC(F)(F)F)C3=O)nn2)ccc1-n1cnc(C(F)(F)F)c1`, the concentration at 6 h was found to be 4.5 µM in “in vivo [22]” and 870 nM in “in vivo [23]”.
`Cc1cn(-c2ccc(-c3cn([C@H]4CCc5c(F)cccc5N(CC(F)(F)F)C4=O)nn3)cc2F)cn1`: the figures for the concentration at 6 h in “in vivo [24]” and in “in vivo [25]” were 6.8 µM and 15 µM, respectively.
